Paper PMC8919389, “Discovery of TAK-925 as a Potent, Selective, and Brain-Penetrant Orexin 2 Receptor Agonist” (ACS Medicinal Chemistry Letters, 2022)
Like-named read-outs stand apart in the source and are kept apart here.

Legend:
human OX1R = biological target: T1, human OX1R (Homo sapiens, UniProt O43613); experiment: Calcium flux assay, OX1R agonistic activity; format: cell-based; details: CHO cells expressing human OX1R, 95% confidence intervals in brackets, duplicate measurements
T1 construct: expressed in transfected cells; host or cells: CHO-K1
T1 sequence (O43613 1-425): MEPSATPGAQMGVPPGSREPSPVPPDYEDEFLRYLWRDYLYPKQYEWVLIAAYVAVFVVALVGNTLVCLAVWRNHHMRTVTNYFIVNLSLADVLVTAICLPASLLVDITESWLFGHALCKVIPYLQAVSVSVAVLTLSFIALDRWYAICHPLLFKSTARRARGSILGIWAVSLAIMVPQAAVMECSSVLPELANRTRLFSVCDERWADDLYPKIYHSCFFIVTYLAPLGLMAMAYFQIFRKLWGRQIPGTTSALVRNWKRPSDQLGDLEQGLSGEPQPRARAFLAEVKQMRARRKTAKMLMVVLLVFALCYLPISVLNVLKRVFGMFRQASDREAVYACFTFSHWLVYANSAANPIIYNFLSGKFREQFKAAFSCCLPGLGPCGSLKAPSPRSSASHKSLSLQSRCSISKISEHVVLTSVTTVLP
Protocol: Calcium flux assay (in vitro agonistic activity of OX2R and OX1R)1 hOX1R/CHO -K1 cells and hOX2R/CHO-K1 cells suspended in Ham's F-12 medium (Fujifilm Wako Pure Chemical Co.) supplemented with 100 U/mL penicillin-streptomycin and 10% FBS […]
cells/well and in black-walled clear -bottomed 96-well plates (Corning) at 45000 cells/well, respectively. The plated cells were grown overnight at 37 °C in the presence of 5% CO2. The following day, the medium was removed, and the cells were incubated with assay buffer ( H BS S with 20mM HEPES, pH 7.4, and 0.1% fatty acid free BSA) containing 2.5 μg/mL Fluo- 4 AM […]
Laboratories), and 0.08% Pluronic F127 (Dojindo Laboratories) for 30 min at 37 °C in the presence of 5% CO2. After incubation, the cells were stimulated with test compounds in the assay buffer. Calcium mobilization was measured using an FDSS/μCELL (Hamamatsu Photonics […]
r epr esent the 0% and 100% responses, respectively.

human OX2R = biological target: T2, human OX2R (Homo sapiens, UniProt O43614); experiment: Calcium flux assay, OX2R agonistic activity
T2 sequence (O43614 1-444): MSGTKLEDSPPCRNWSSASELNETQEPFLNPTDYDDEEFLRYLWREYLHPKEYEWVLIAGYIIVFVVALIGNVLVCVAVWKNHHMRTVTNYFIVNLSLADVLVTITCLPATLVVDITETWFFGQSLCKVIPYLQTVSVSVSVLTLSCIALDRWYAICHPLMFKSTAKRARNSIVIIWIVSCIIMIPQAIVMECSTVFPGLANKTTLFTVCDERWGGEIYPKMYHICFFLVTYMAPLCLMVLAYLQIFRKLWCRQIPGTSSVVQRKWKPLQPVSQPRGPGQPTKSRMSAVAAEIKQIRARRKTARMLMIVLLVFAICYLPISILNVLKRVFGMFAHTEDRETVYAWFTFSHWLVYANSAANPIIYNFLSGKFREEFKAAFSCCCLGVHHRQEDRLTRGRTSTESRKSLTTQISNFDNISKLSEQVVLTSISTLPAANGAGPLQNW

[1] = biological target: multidrug resistance protein 1 (MDR-1) (Homo sapiens, UniProt P08183); experiment: Transcellular transport study using human MDR1-expressing LLC-PK1 cells; details: for MDR-1 ratio (directional transport ratio B to A/A to B): 10 μM test compound, 2 h
Protocol: Transcellular transport study using a t ransporter- exp ressi on syst em
Human MDR1-expressing LLC -PK1 cells were cultured as reported previously with minor
modifications. 2 T he transcellular transport study was performed as reported previously.2 In brief,
the cells were grown for 7 days in an HTS Transwell 96 -well permeable support (pore size, 0.4
μm; sur f ace ar ea, 0. 143 cm2) with a polyethylene ter ephthalate membr ane ( Cor ning Lif e Sciences,
T he cells wer e pr eincubated with M199
at 37 °C for 30 min. Subsequently, transcellular transport was initiated by the addition of M199
either to apical compartments (75 μ L) or to the basolateral compartments (250 μ L) containing 10
μM digoxin, 200 μM lucifer yellow as a marker for the monolayer tightness, and 10 μM test
compounds and then terminated by the removal of each assay plate after 2 h. The aliquots (25
μL) in the opposite compartments were mixed with acetonitrile containing alprenolol an d
diclofenac as an internal standard and then centrifuged. The compound concentrations in the
supernatant were measured by LC− MS/MS. The apparent permeability (Pap p ) of test compounds
in the receiver wells was deter mined, and the efflux ratio for the MDR1 membrane permeability
test was calculated using the following equation:
Efflux ratio = Papp,BtoA/Papp,AtoB
wher e Papp,AtoB is the apical-to-ba sal passive permeability−sur f ace ar ea pr oduct and P app,BtoA is the
basal-to -apical pas sive per meability−sur f ace ar ea pr oduct.

[2] = Brain and plasma concentration after intraperitoneal administration in mice; format: in vivo, C57BL/6J mice; details: 10 mg/kg ip; for concentration at 0.5 h / concentration at 1 h: n = 3
Protocol: Brain and plasma concentration of compound 16 was measured after intraperitoneal administration at 10 mg/kg in mice (Table 5).
Measurem ent of plasm a and brain concent rat ion of compound 16 in mice The aliquots of the brain homogenate were mixed with acetonitrile containing internal standard.
The mixtures were centrifuged. The supernatants were diluted with solvents for LC-MS / MS (mobile phase A: 10 mM ammonium formate/formic acid (100/0.2, v/v), mobile phase B: acetonitrile/formic acid (100/0.2, v/v)). The diluted solutions were injected into LC-MS / MS (API5000, AB Sciex, CA) equipped with Shimadzu Shim-pack XR-ODS (2.2 μm, 2.0 × 30 mm, Shimadzu Corporation, Japan) at 50 °C. Analyst sof twar e T M ( ver sio n 1.4.2) was used for data acquisition and processing.
Ethics Statement. The care and use of the animals and the experimental protocols used in this research were approved by the Experimental Animal Care and Use Committee of Takeda Phar maceutical Company Limited.

ICR mice = experiment: Wakefulness time in ICR mice during the sleep phase (EEG/EMG); format: in vivo; details: sleep phase (ZT5), 3 mg/kg subcutaneous, n = 8, P < 0.001 vs vehicle
Protocol: It has been reported that activation of the orexin system by intracerebroventricular injection of OX-A increases wakefulness in rodents.[20],[21] In this study, we assessed the effect of compound 16 on wakefulness time in ICR mice during the sleep phase based on the measurements of electroencephalogram and electromyogram.
Figure 5 Effect of compound 16 on wakefulness time in ICR mice during the sleep phase. Compound 16 at 3 mg/kg or vehicle was administered subcutaneously to ICR mice at zeitgeber time 5, and electroencephalograms and electromyograms were recorded. Analysis was performed with data collected during 3 h after drug administration. Data were presented as the mean + standard error of the mean (n = 8). ***P < 0.001, compared with the vehicle-treated mice (two-tailed paired t test).
Evaluation of wakefulness time m easu rem ent of compound 16 in m ice
I CR mice were obtained from CLEA Japan Inc. (Tokyo, Japan). M ice were housed in groups of 4 per cage in a light controlled room (12 h light/dark cycle with lights on at 07:00 h). Food and tap water were provided ad libitum . […] 1 Compound 16 at 3 mg/kg suspended in 0.5% methylcellulose saline was administered subcutaneously to mice at zeitgeber time 5 (ZT5) in a volume of 10 mL/kg body weight, and then EE G was recorded. […] The statistical significance between two groups was determined by paired t-test with significance set at P < 0.05. […]

[3] = read-out: OX2R agonistic activity EC50, CHO cells expressing human OX2R, calcium flux, 95% confidence intervals in brackets, duplicate measurements

Row | SMILES | EC50 (human OX1R) [µM] | EC50 (human OX2R; [3]) [µM] | MDR-1 ratio (directional transport ratio B to A/A to B) [1] | other results
1 | CCS(=O)(=O)N[C@H]1CCCN(C(C)=O)[C@H]1CO[C@H]1CC[C@@H](C(C)C)CC1 [compound 3] | > 100 | 0.27 |  | 
2 | CCC(=O)N1CCC[C@H](NS(C)(=O)=O)[C@@H]1CO[C@H]1CC[C@@H](c2ccccc2)CC1 [compound 15] | > 100 | 0.011 | 2.2 | 
3 | CC(=O)N1CCC[C@H](NS(=O)(=O)C(C)C)[C@@H]1CO[C@H]1CC[C@@H](C(C)C)CC1 [compound 8] | > 100 | 0.94 |  | 
4 | CC(=O)N[C@H]1CCCN(C(C)=O)[C@H]1CO[C@H]1CC[C@@H](C(C)C)CC1 (stereo in doubt) [compound 11] | > 100 |  |  | EC50 (human OX2R): > 30 µM
5 | COC(=O)N1CCC[C@H](NS(C)(=O)=O)[C@@H]1CO[C@H]1CC[C@@H](c2ccccc2)CC1 [compound 16, methyl (2R,3S)-3-((methylsulfonyl)amino)-2-(((cis-4-phenylcyclohexyl)oxy)methyl)piperidine-1-carboxylate] | > 100 | 0.0055 | 0.8 | half-life in mice ([2]; mice): short half-life; Kp at 0.5 h ([2]; mouse, brain/plasma, C57BL/6J mice, 0.5 h, read-out: brain-to-plasma concn ratio): 0.2; Kp at 1 h ([2]; mouse, brain/plasma, C57BL/6J mice, 1 h, read-out: brain-to-plasma concn ratio): 0.2; concentration at 0.5 h ([2]; mouse, brain, C57BL/6J mice, 0.5 h, read-out: brain concn): 183 ng/g; concentration at 1 h ([2]; mouse, brain, C57BL/6J mice, 1 h, read-out: brain concn): 63 ng/g; concentration at 0.5 h ([2]; mouse, plasma, C57BL/6J mice, 0.5 h, read-out: plasma concn): 0.88 µg/mL; concentration at 1 h ([2]; mouse, plasma, C57BL/6J mice, 1 h, read-out: plasma concn): 0.288 µg/mL; total wakefulness time during 3 h after administration (ICR mice): significantly increased; MDR-1 transport A to B ([1]; apical to basal): 169
6 | CCS(=O)(=O)N[C@@H]1CCCN(C(C)=O)[C@H]1CO[C@H]1CC[C@@H](C(C)C)CC1 [compound 4] | > 100 | > 30 |  | 
7 | CS(=O)(=O)N[C@H]1CCCN[C@H]1CO[C@H]1CC[C@@H](c2ccccc2)CC1 [compound 14] | > 100 |  | 0.8 | 
8 | CC(=O)N1CCC[C@H](NS(C)(=O)=O)[C@@H]1CO[C@H]1CC[C@@H](C)CC1 (relative stereo) [compound 12] | > 100 |  |  | EC50 (human OX2R): 3.7 µM
9 | CCCS(=O)(=O)N[C@H]1CCCN(C(C)=O)[C@H]1CO[C@H]1CC[C@@H](C(C)C)CC1 [compound 9] | > 100 | 2.5 |  | 
10 | CCS(=O)(=O)NC1CCCN(C(C)=O)C1COC1CCC(C(C)C)CC1 (stereo not drawn) [compound 2] | > 100 | 0.57 |  | Emax (human OX2R; read-out: maximum response [Emax], OX2R agonism): 94%
11 | CCS(=O)(=O)N[C@H]1CCCN(C(C)=O)[C@H]1CO[C@H]1CC[C@H](C(C)C)CC1 [compound 5] | > 100 | > 30 |  | 
12 | CC(=O)N1CCC[C@H](NS(C)(=O)=O)[C@@H]1CO[C@H]1CC[C@@H](C(C)C)CC1 [compound 7] | > 100 | 0.33 |  | 
13 | CCS(=O)(=O)N[C@@H]1CCCN(C(C)=O)[C@H]1CO[C@H]1CC[C@H](C(C)C)CC1 [compound 6] | > 100 | > 30 |  | 
14 | CCOC(=O)N1CCC[C@H](NS(C)(=O)=O)[C@@H]1CO[C@H]1CC[C@@H](c2ccccc2)CC1 [compound 17] | > 100 | 0.027 | 0.7 | 
15 | CC(=O)N1CCC[C@H](N(C)S(C)(=O)=O)[C@@H]1CO[C@H]1CC[C@@H](C(C)C)CC1 [compound 10] | > 100 | > 30 |  | 
16 | CCNC(=O)N1CCC[C@H](NS(C)(=O)=O)[C@@H]1CO[C@H]1CC[C@@H](c2ccccc2)CC1 [compound 18] | 14 |  | 4.8 | 
